Laboratory results published in EPA's ToxRefDB 2.

Experiments:
mouse [1] = details: Prenatal developmental toxicity study, other, Injection, Intraperitoneal, dose end: 15 GD
mouse [2] = details: Subchronic inhalation toxicity, b6c3f1, Whole-Body, dose end: 13 week, group: systemic, systemic / organ weight / kidney / absolute + systemic / organ weight / kidney / relative to body weight + systemic / organ weight / liver…
rat [3] = details: Combined chronic toxicity/carcinogenicity, sprague dawley, Inhalation, Whole-Body, dose end: 2 year, group: systemic
rabbit = details: Prenatal developmental toxicity study, himalayan, Dermal, Topical, dose end: 18 GD
rat [4] = details: Prenatal developmental toxicity study; long evans; Inhalation; Whole-Body; dose end: 15 GD; group: developmental; systemic / in life observation / body weight / fetal weight
mouse [5] = details: Multigenerational reproductive toxicity study, cd1, Oral, Water, dose end: 2 generation
rat [6] = details: Prenatal developmental toxicity study, sprague dawley, Dermal, Topical, dose end: 15 GD
rat [7] = details: Subchronic oral toxicity in rodents, wistar, Feed, dose end: 104 day, group: systemic
mouse [8] = details: Subchronic inhalation toxicity, b6c3f1, Whole-Body, dose end: 12 week, group: systemic
rat [9] = details: Subchronic inhalation toxicity, fischer, Whole-Body, dose end: 12 week, group: systemic
rat [10] = details: Prenatal developmental toxicity study, sprague dawley, Inhalation, Whole-Body, dose end: 15 GD
mouse [11] = details: Subchronic inhalation toxicity, other, Whole-Body, dose end: 13 week, group: systemic
rat [12] = details: Subchronic inhalation toxicity, fischer, Whole-Body, dose end: 13 week, group: systemic
mouse [13] = details: Prenatal developmental toxicity study, other, Oral, Gavage/Intubation, dose end: 15 GD, group: developmental
mouse [14] = details: Carcinogenicity; cd1; Inhalation; Whole-Body; dose end: 18 month; group: systemic; systemic / pathology microscopic / liver / hemosiderosis + systemic / pathology microscopic / liver / hyperplasia + systemic / pathology …
rat [15] = details: Prenatal developmental toxicity study, sprague dawley, Oral, Gavage/Intubation, dose end: 20 GD
[16] = group: developmental, developmental / developmental malformation / bone / exencephaly
[17] = group: maternal, reproductive / reproductive performance / resorptions / resorptions
[18] = group: maternal, reproductive / reproductive performance / resorptions / resorptions + systemic / in life observation / body weight / body weight + systemic…
[19] = systemic / organ weight / liver / relative to body weight + systemic / pathology microscopic / liver / clear cell focus + systemic / …
[20] = group: developmental, developmental / developmental malformation / general / [other]
[21] = group: maternal, systemic / in life observation / body weight / body weight + systemic / in life observation / clinical signs / skin ulceration
[22] = group: offspring, developmental / developmental malformation / bone / domed head + developmental / developmental malformation / nose / ecchymosis + systemic…
[23] = group: parental, systemic / organ weight / epididymis / absolute + systemic / organ weight / liver / absolute + systemic / organ weight / liver / relative to…
[24] = group: parental, systemic / organ weight / epididymis / absolute + systemic / organ weight / liver / absolute + systemic / pathology gross / sperm measure / …
[25] = group: reproductive, reproductive / reproductive performance / fertility / fertility + reproductive / offspring survival early / litter size / litter size + …
[26] = group: developmental, developmental / developmental malformation / general / [other] + developmental / developmental malformation / general / crown-rump length
[27] = group: maternal, systemic / organ weight / placenta / absolute
[28] = group: maternal, systemic / organ weight / placenta / absolute + systemic / in life observation / body weight / body weight gain + systemic / in life …
[29] = systemic / clinical chemistry / sodium / sodium + systemic / in life observation / body weight / body weight gain + systemic / in life …
[30] = systemic / in life observation / mortality / mortality + systemic / pathology gross / liver / discolored + systemic / pathology microscopic…
[31] = systemic / pathology microscopic / liver / cytomegaly
[32] = systemic / clinical chemistry / alanine aminotransferase (alt/sgpt) / alanine aminotransferase (alt/sgpt) + systemic / clinical chemistry / …
[33] = group: developmental, systemic / in life observation / body weight / fetal weight
[34] = group: maternal, systemic / in life observation / body weight / body weight gain
[35] = systemic / clinical chemistry / cholesterol / cholesterol + systemic / hematology / erythrocyte (rbc) count differential / erythrocyte (rbc…
[36] = systemic / hematology / erythrocyte (rbc) count differential / erythrocyte (rbc) + systemic / hematology / mean corpuscular (cell) volume (…
[37] = developmental / developmental malformation / general / [other] + developmental / developmental malformation / general / crown-rump length + …
[38] = developmental / developmental malformation / general / crown-rump length + systemic / in life observation / body weight / fetal weight
[39] = group: developmental, developmental / developmental malformation / bone / incomplete ossification + systemic / in life observation / body weight / fetal weight
[40] = group: maternal, systemic / in life observation / body weight / body weight gain + systemic / in life observation / food consumption / food consumption

CN(C)C=O [N,N-Dimethylformamide]
LEL (mouse [1]; [16]): 944 mg/kg/day
LOAEL (mouse [1]; [16]): > 944 mg/kg/day
NEL (mouse [1]; [16]): 378 mg/kg/day
NOAEL (mouse [1]; [16]): ≥ 944 mg/kg/day
LEL (mouse [1]; [17]): 378 mg/kg/day
NEL (mouse [1]; [17]): < 378 mg/kg/day
LOAEL (mouse [1]; [18]): > 944 mg/kg/day
NOAEL (mouse [1]; [18]): ≥ 944 mg/kg/day
LEL (mouse [2]): 50 ppm
LOAEL (mouse [2]): > 800 ppm
NEL (mouse [2]): < 50 ppm
NOAEL (mouse [2]): ≥ 800 ppm
LOAEL (rat [3]; [19]): > 400 ppm
NEL (rat [3]; [19]): 25 ppm
NOAEL (rat [3]; [19]): ≥ 400 ppm
LEL (rat [3]; systemic / organ weight / liver / relative to body weight + systemic / pathology microscopic / liver / hypertrophy + systemic / clinical …): 100 ppm
LEL (rabbit; [20]): 400 mg/kg/day
LOAEL (rabbit; [20]): > 400 mg/kg/day
NEL (rabbit; [20]): 200 mg/kg/day
NOAEL (rabbit; [20]): ≥ 400 mg/kg/day
LEL (rabbit; [21]): 400 mg/kg/day
LOAEL (rabbit; [21]): > 400 mg/kg/day
NEL (rabbit; [21]): 200 mg/kg/day
NOAEL (rabbit; [21]): ≥ 400 mg/kg/day
LEL (rat [4]): 172 ppm
LOAEL (rat [4]): > 172 ppm
NEL (rat [4]): 18 ppm
NOAEL (rat [4]): ≥ 172 ppm
LEL (mouse [5]; [22]): 545 mg/kg/day
LOAEL (mouse [5]; [22]): > 1030 mg/kg/day
NEL (mouse [5]; [22]): 185 mg/kg/day
NOAEL (mouse [5]; [22]): ≥ 1030 mg/kg/day
LEL (mouse [5]; [23]): 185 mg/kg/day
NEL (mouse [5]; [23]): < 185 mg/kg/day
LOAEL (mouse [5]; [24]): > 1030 mg/kg/day
NOAEL (mouse [5]; [24]): ≥ 1030 mg/kg/day
NEL (mouse [5]; group: reproductive, reproductive / reproductive performance / fertility / fertility): 185 mg/kg/day
LEL (mouse [5]; [25]): 545 mg/kg/day
LOAEL (mouse [5]; [25]): > 1030 mg/kg/day
NOAEL (mouse [5]; [25]): ≥ 1030 mg/kg/day
LEL (rat [6]; [26]): 944 mg/kg/day
LOAEL (rat [6]; [26]): > 944 mg/kg/day
NEL (rat [6]; [26]): 472 mg/kg/day
NOAEL (rat [6]; [26]): ≥ 944 mg/kg/day
LEL (rat [6]; [27]): 94 mg/kg/day
NEL (rat [6]; [27]): < 94 mg/kg/day
LOAEL (rat [6]; [28]): > 944 mg/kg/day
NOAEL (rat [6]; [28]): ≥ 944 mg/kg/day
LOAEL (rat [7]; [29]): > 210 mg/kg/day
NOAEL (rat [7]; [29]): ≥ 210 mg/kg/day
LEL (rat [7]; systemic / in life observation / food consumption / food consumption): 69 mg/kg/day
NEL (rat [7]; systemic / in life observation / food consumption / food consumption + systemic / in life observation / body weight / body weight gain + …): 20 mg/kg/day
LOAEL (mouse [8]; [30]): > 1200 ppm
NOAEL (mouse [8]; [30]): ≥ 1200 ppm
LEL (mouse [8]; [31]): 150 ppm
NEL (mouse [8]; [31]): < 150 ppm
LOAEL (rat [9]; [32]): > 1200 ppm
NOAEL (rat [9]; [32]): ≥ 1200 ppm
LEL (rat [9]; systemic / clinical chemistry / alkaline phosphatase (alp/alk) / alkaline phosphatase (alp/alk)): 300 ppm
NEL (rat [9]; systemic / clinical chemistry / alkaline phosphatase (alp/alk) / alkaline phosphatase (alp/alk) + systemic / clinical chemistry / aspartate …): 150 ppm
LEL (rat [10]; [33]): 300 ppm
LOAEL (rat [10]; [33]): > 300 ppm
NEL (rat [10]; [33]): 30 ppm
NOAEL (rat [10]; [33]): ≥ 300 ppm
LEL (rat [10]; [34]): 300 ppm
LOAEL (rat [10]; [34]): > 300 ppm
NEL (rat [10]; [34]): 30 ppm
NOAEL (rat [10]; [34]): ≥ 300 ppm
LOAEL (mouse [11]; [32]): > 800 ppm
NOAEL (mouse [11]; [32]): ≥ 800 ppm
LEL (mouse [11]; [35]): 50 ppm
NEL (mouse [11]; [35]): < 50 ppm
LOAEL (rat [12]; [32]): > 800 ppm
NOAEL (rat [12]; [32]): ≥ 800 ppm
LEL (rat [12]; [36]): 50 ppm
NEL (rat [12]; [36]): < 50 ppm
LOAEL (mouse [13]; [37]): > 548 mg/kg/day
NOAEL (mouse [13]; [37]): ≥ 548 mg/kg/day
LEL (mouse [13]; [38]): 182 mg/kg/day
NEL (mouse [13]; [38]): < 182 mg/kg/day
LEL (mouse [14]): 25 ppm
LOAEL (mouse [14]): > 400 ppm
NEL (mouse [14]): < 25 ppm
NOAEL (mouse [14]): ≥ 400 ppm
LOAEL (rat [15]; [39]): > 300 mg/kg/day
NEL (rat [15]; [39]): 50 mg/kg/day
NOAEL (rat [15]; [39]): ≥ 300 mg/kg/day
LEL (rat [15]; [33]): 100 mg/kg/day
LEL (rat [15]; [40]): 100 mg/kg/day
LOAEL (rat [15]; [40]): > 300 mg/kg/day
NEL (rat [15]; [40]): 50 mg/kg/day
NOAEL (rat [15]; [40]): ≥ 300 mg/kg/day
